Measurements: article PMC3214022, “Plasmodium falciparum Parasites Are Killed by a Transition State Analogue of Purine Nucleoside Phosphorylase in a Primate Animal Model” (PLoS ONE, 2011)

Assay: Weights, CBC, blood chemistry and signs of toxicity, Table S1 sheet PD-2 (infected Aotus, twice a day for seven days)
Assay type: in vivo, Aotus lemurinus lemurinus
Details: oral 10 mg/kg twice a day/7 days
Protocol: Laboratory bred Aotus lemurinus lemurinus monkeys (0.75–0.89 kg) were maintained as described. […] Blood samples were collected before the treatment started (t = 0), 0.05 h, 0.5 h, 1 h, 2 h, 6 h, 24 h, 48 h, and 6, 12 and 18 days after the first dose from each monkey and processed as described below. Pharmacokinetic parameters were calculated using PKSolver. For efficacy studies, Aotus monkeys were inoculated intravenously with 5×10^6 parasites of the FVO strain of P. falciparum in an approved treatment protocol. […] Parasitaemia was determined by Giemsa-stained thick blood smears prepared daily from the marginal ear vein [41]. Blood samples were collected from each monkey and transferred to tubes containing lithium heparin, centrifuged and both plasma and blood cells were frozen at −80 °C until analysis. Animals received a physical examination and blood chemistry profiles were monitored after treatment as described previously. Any monkey not responding appropriately to treatment was cured of its infection with mefloquine (40 mg kg^−1). […] The day of clearance is defined as the first of three consecutive days in which the thick blood films are parasite negative. The day of recrudescence is the first of three consecutive days of positive thick blood films after a period of clearance. Suppression is defined as a transient decrease in the parasite count post-treatment without clearance.

Nc1nc2c(CN3CC(O)C(CO)C3)c[nH]c2c(=O)[nH]1 (stereo not shown) [BCX4945, 4′-deaza-1′-aza-2′-deoxy-1′-(9-methylene)-Immucillin-G]
WEIGHT (26027 Male (ITM3), day 15): 890 g
Blood Urea Nitrogen (26027 Male (ITM3), day 18): 20.6 mg/dL
Creatine (26027 Male (ITM3), day 18): 0.5 mg/dL
Erythrocytes (26027 Male (ITM3), day 18): 4.74e+06 µL⁻¹
Glutamate Pyruvate Transaminase (26027 Male (ITM3), day 18): 27.5 U/L
Granulocytes (%) (26027 Male (ITM3), day 18): 37%
Granulocytes (x 103/ul) (26027 Male (ITM3), day 18): 3 x 103/ul
Hematocrit (26027 Male (ITM3), day 18): 39.9%
Hemoglobin (26027 Male (ITM3), day 18): 14.1 g/dL
Leucocytes (26027 Male (ITM3), day 18): 8100 µL⁻¹
Lymphocytes (%) (26027 Male (ITM3), day 18): 58.1%
Lymphocytes (x 103/ul) (26027 Male (ITM3), day 18): 4.7 x 103/ul
Mean Corpuscular Hemoglobin (26027 Male (ITM3), day 18): 29.9 pg
Mean Corpuscular Volume (26027 Male (ITM3), day 18): 84.3 fL
Mean Hemoglobin Content (26027 Male (ITM3), day 18): 35.4 g/dL
Mean Platelet Volume (26027 Male (ITM3), day 18): 11.7 fL
Monocytes (%) (26027 Male (ITM3), day 18): 4.9%
Monocytes (x 103/ul) (26027 Male (ITM3), day 18): 0.4 x 103/ul
Platelets (26027 Male (ITM3), day 18): 208000 µL⁻¹
Red Cell Distribution Width (26027 Male (ITM3), day 18): 17.7%
Reticulocytes (26027 Male (ITM3), day 18): 1.9%
WEIGHT (26027 Male (ITM3), day 18): 900 g
Erythrocytes (26027 Male (ITM3), day 25): 4.04e+06 µL⁻¹
Granulocytes (%) (26027 Male (ITM3), day 25): 17.2%
Granulocytes (x 103/ul) (26027 Male (ITM3), day 25): 2.5 x 103/ul
Hematocrit (26027 Male (ITM3), day 25): 35.7%
Hemoglobin (26027 Male (ITM3), day 25): 12.2 g/dL
Leucocytes (26027 Male (ITM3), day 25): 14500 µL⁻¹
Lymphocytes (%) (26027 Male (ITM3), day 25): 74.8%
Lymphocytes (x 103/ul) (26027 Male (ITM3), day 25): 10.8 x 103/ul
Mean Corpuscular Hemoglobin (26027 Male (ITM3), day 25): 30.1 pg
Mean Corpuscular Volume (26027 Male (ITM3), day 25): 88.4 fL
Mean Hemoglobin Content (26027 Male (ITM3), day 25): 34 g/dL
Mean Platelet Volume (26027 Male (ITM3), day 25): 13.3 fL
Monocytes (%) (26027 Male (ITM3), day 25): 8%
Monocytes (x 103/ul) (26027 Male (ITM3), day 25): 1.2 x 103/ul
Platelets (26027 Male (ITM3), day 25): 118000 µL⁻¹
Red Cell Distribution Width (26027 Male (ITM3), day 25): 17.3%
Reticulocytes (26027 Male (ITM3), day 25): 3.1%
WEIGHT (26027 Male (ITM3), day 25): 888 g
Blood Urea Nitrogen (26027 Male (ITM3), day -10): 18.35 mg/dL
Creatine (26027 Male (ITM3), day -10): 0.5 mg/dL
Erythrocytes (26027 Male (ITM3), day -10): 5.73e+06 µL⁻¹
Glutamate Pyruvate Transaminase (26027 Male (ITM3), day -10): 23.9 U/L
Granulocytes (%) (26027 Male (ITM3), day -10): 15.9%
Granulocytes (x 103/ul) (26027 Male (ITM3), day -10): 1.6 x 103/ul
Hematocrit (26027 Male (ITM3), day -10): 46.1%
Hemoglobin (26027 Male (ITM3), day -10): 17.0 g/dL
Leucocytes (26027 Male (ITM3), day -10): 10200 µL⁻¹
Lymphocytes (%) (26027 Male (ITM3), day -10): 78%
Lymphocytes (x 103/ul) (26027 Male (ITM3), day -10): 8 x 103/ul
Mean Corpuscular Hemoglobin (26027 Male (ITM3), day -10): 29.6 pg
Mean Corpuscular Volume (26027 Male (ITM3), day -10): 80.5 fL
Mean Hemoglobin Content (26027 Male (ITM3), day -10): 36.8 g/dL
Mean Platelet Volume (26027 Male (ITM3), day -10): 11.9 fL
Monocytes (%) (26027 Male (ITM3), day -10): 6.1%
Monocytes (x 103/ul) (26027 Male (ITM3), day -10): 0.6 x 103/ul
Platelets (26027 Male (ITM3), day -10): 253000 µL⁻¹
Red Cell Distribution Width (26027 Male (ITM3), day -10): 11.7%
Reticulocytes (26027 Male (ITM3), day -10): 1.1%
WEIGHT (26027 Male (ITM3), day -10): 895 g
Blood Urea Nitrogen (26047 Female (ITM1), day 8): 18.65 mg/dL
Creatine (26047 Female (ITM1), day 8): 0.539 mg/dL
Erythrocytes (26047 Female (ITM1), day 8): 4.63e+06 µL⁻¹
Glutamate Pyruvate Transaminase (26047 Female (ITM1), day 8): 13.2 U/L
Granulocytes (%) (26047 Female (ITM1), day 8): 10%
Granulocytes (x 103/ul) (26047 Female (ITM1), day 8): 1.3 x 103/ul
Hematocrit (26047 Female (ITM1), day 8): 36.7%
Hemoglobin (26047 Female (ITM1), day 8): 13.2 g/dL
Leucocytes (26047 Female (ITM1), day 8): 12900 µL⁻¹
Lymphocytes (%) (26047 Female (ITM1), day 8): 74.5%
Lymphocytes (x 103/ul) (26047 Female (ITM1), day 8): 9.6 x 103/ul
Mean Corpuscular Hemoglobin (26047 Female (ITM1), day 8): 28.5 pg
Mean Corpuscular Volume (26047 Female (ITM1), day 8): 79.3 fL
Mean Hemoglobin Content (26047 Female (ITM1), day 8): 35.9 g/dL
Mean Platelet Volume (26047 Female (ITM1), day 8): 9.7 fL
Monocytes (%) (26047 Female (ITM1), day 8): 15.5%
Monocytes (x 103/ul) (26047 Female (ITM1), day 8): 2 x 103/ul
Platelets (26047 Female (ITM1), day 8): 297000 µL⁻¹
Red Cell Distribution Width (26047 Female (ITM1), day 8): 12.5%
Reticulocytes (26047 Female (ITM1), day 8): 2.8%
WEIGHT (26047 Female (ITM1), day 8): 814 g
Blood Urea Nitrogen (26047 Female (ITM1), day 12): 10.55 mg/dL
Creatine (26047 Female (ITM1), day 12): 0.5 mg/dL
Erythrocytes (26047 Female (ITM1), day 12): 4.11e+06 µL⁻¹
Glutamate Pyruvate Transaminase (26047 Female (ITM1), day 12): 27.3 U/L
Granulocytes (%) (26047 Female (ITM1), day 12): 21.3%
Granulocytes (x 103/ul) (26047 Female (ITM1), day 12): 3.6 x 103/ul
Hematocrit (26047 Female (ITM1), day 12): 32.7%
Hemoglobin (26047 Female (ITM1), day 12): 11.6 g/dL
Leucocytes (26047 Female (ITM1), day 12): 16800 µL⁻¹
